Consider four compounds from PMC6560442, “Biochemical Properties of Polyphenol Oxidases from Ready-to-Eat Lentil (Lens culinaris Medik.) Sprouts and Factors Affecting Their Activities: A Search for Potent Tools Limiting Enzymatic Browning” (Foods, 2019).

The subject of one test is T1, PPO II.
T1 construct: second isoenzyme
In words: quinone formation, absorbance at […] nm, Lineweaver-Burk. The note with it: TRIS-HCl 50 mM pH 6.5 (standard assay); 1-30 mM substrate; partially purified enzyme. Type of test: biochemical, Lens culinaris.

The next test deals with T2, PPO I.
T2 construct: first isoenzyme
The description is as above. Type of test: biochemical, Lens culinaris. The note with it: TRIS-HCl 50 mM pH 6.5 (standard assay); 1-30 mM substrate; partially purified enzyme.

The Km is the concentration of substrate that gives half-maximal velocity. In the case of `O=C(O)c1cc(O)c(O)c(O)c1` [Gallic acid], the Km in the test on PPO II worked out at 5000 ± 230 µM; in the test on PPO I it was 2250 ± 100 µM.

Consider `Cc1ccc(O)c(O)c1` [4-methylcatechol], for which the Km is 3400 ± 150 µM in the test on PPO II and 3000 ± 140 µM in the test with PPO I.

As to `Oc1ccccc1O` [Catechol], the Km turned out to be 940 ± 40 µM with PPO II and 1760 ± 80 µM in the test with PPO I.

For the compound `O=C(O)/C=C/c1ccc(O)c(O)c1` [Caffeic acid], the Km with PPO I came to 3810 ± 170 µM.
